Assay type in all cases: cell-based, human
The test system of series [1] is AGS. As to the kind of experiment: Annexin V-FITC/PI staining, flow cytometry. Particulars: 48 h at EC50. From the text:
(§1) To discern whether cell death triggered by OOPs treatment occurred via apoptosis or necrosis under the experimental conditions applied in this study, live cells treated with OOPs were stained simultaneously with FITC-conjugated annexin V and propidium iodide (PI). Annexin V binds to phosphatidylserine (PS) translocating from the inner to the outer leaflet of the plasma membrane in apoptotic cells. Therefore, annexin V-FITC binding to PS labels live apoptotic cells with green FL. […] PS exposure to the extracellular space and cell membrane permeability were analyzed by flow cytometry as described in detail in the Experimental Section. […] OOP concentrations used were equal to the EC50 values for each cell line (Table 1). annexin V and PI staining discriminated between early- (i.e., annexin V +ve and PI −ve) and late-apoptotic cells (i.e., annexin V +ve and PI +ve), as well as between necrotic (i.e., annexin V −ve and PI +ve) and live (i.e., annexin V −ve and PI −ve) cells (Table 4).
(§2) Apoptosis and necrosis were assessed by double staining with annexin V-FITC and propidium iodide (PI) and were analyzed using flow cytometry (FACS). Human cancer cells were plated in 96-well culture plates in 100 μL of complete medium and were allowed to adhere overnight (~16 h). […] In detail, 0.5 μL of a 500× stock of each tested compound in DMSO was added directly into each well in a final volume of 250 μL culture medium and was gently mixed by pipetting. Control wells were prepared under the same experimental conditions by adding only DMSO at a final concentration of 0.2% (v/v). At the end of the treatment, the cells were detached by trypsinization, media with serum was added to deactivate trypsin, and the cells from three wells were pooled together by centrifugation (1000 rpm, 5 min, 24 °C), washed with cold PBS, centrifuged (1000 rpm, 5 min, 24 °C) and finally resuspended in cold 1× annexin V binding buffer (10 mM HEPES pH = 7.4, 150 mM NaCl, 2.5 mM CaCl2) at a density of 10^4 cells/mL. Staining was performed by incubating with annexin V- FITC and propidium iodide (PI; BioLegend) for 15 min at room temperature in the dark, according to the manufacturer’s instructions. Negative control samples consisted of cells treated only with 0.2% (v/v) DMSO for the same incubation time length (i.e., 48 h). Cells treated with Triton X-100 (0.25% (v/v)) for 5 min at 4 °C were used as controls for 100% permeabilization of the plasma membrane and maximum fluorescence staining with PI (positive control for cells in necrosis). The presence of live, apoptotic or necrotic cells was assessed with the FACS Calibur (Becton–Dickinson, San Jose, CA, USA). In total, 10,000 cells were analyzed per measurement and the acquired data were analyzed using the FlowJo V.10.0.8 software (Tree Star Inc., Ashland, OR, USA). Each condition was analyzed in duplicate, and the results presented are from 2 or 3 independent experiments.
(§3) Data showing OOPs’ apoptotic/necrotic effect were derived from two or three independent experiments and were presented as the means ± SE of the percentage (%) of both annexin V-positive cells (early apoptotic events) and % of annexin V/PI positive cells (late apoptotic events) over the whole cell population normalized to the corresponding events of the control cells, as determined using the FlowJo software.

The subject of series [2] is H1299. Nature of the series: Annexin V-FITC/PI staining, flow cytometry. Particulars: 48 h at EC50.
From the text: as §1, §2, §3

The test system of series [3] is PANC-1. Nature of the series: Annexin V-FITC/PI staining, flow cytometry. Particulars: 48 h at EC50.
From the text: as §1, §2, §3

The test system of series [4] is SK-BR-3. As to the kind of experiment: Annexin V-FITC/PI staining, flow cytometry. Particulars: 48 h at EC50.
From the text: as §1, §2, §3

Series [5] deals with AGS. As to the kind of experiment: ATP assay under 1% (v/v) O2 versus 20% (v/v) O2, 72 h. Particulars: 1% (v/v) O2 vs 20% (v/v) O2. As to the method:
The effects of drugs on cancer cell lines are usually tested under atmospheric conditions (20% (v/v) O2). However, the O2 content in tissues (normoxia) and solid tumors (hypoxia) is ≤ 5% (v/v). In some tumors (i.e., pancreatic tumors) the % O2 is even ≤ 1% (v/v). This affects cell metabolism and signaling pathways which depend on the hypoxia-induced Factor 1A (HIF1A) and it could affect the activity of certain drugs. […] The effects of these three OOPs were tested on the MDA-MB 231, SK-BR-3 and MCF-7 breast cancer and on the AGS stomach cancer cell lines.
Figure 6 Effect of O2 concentration on the antiproliferative/cytotoxic effect of OOPs. […] Cell viability was determined on (A) AGS, (B) MDA-MB 231, (C) MCF-7 and (D) SK-BR-3 cell lines using ATP-based luminescence assay. The results presented are from two independent experiments performed in triplicate. Bar graphs represent the mean cell count ± SE in each treatment group normalized to the control group (i.e., cells treated only with 0.2% (v/v) DMSO). * p < 0.05; ** p ≤ 0.01; *** p ≤ 0.001 (t-test) comparing the two different conditions.

With `COC(=O)C1=COC(C)[C@@H](C=O)[C@@H]1CC(=O)OCCc1ccc(O)c(O)c1` (mixture of isomers) [3a,b, oleuropein aglycone], in series [1], the “% Cell Viability” value stood at 31%, the “Early Apoptotic (% ± S.D.)” value is reported as 19.40 ± 0.6%, the “Late Apoptotic (% ± S.D.)” value stood at 8.08 ± 2.0% and the “Total Apoptotic (%)” value is on record as 27.48 ± 1.4%. In series [2], the “% Cell Viability” value worked out at 40%, the “Early Apoptotic (% ± S.D.)” value came out at 9.14 ± 3.1%, the “Late Apoptotic (% ± S.D.)” value turned out to be 5.44 ± 2.2% and the “Total Apoptotic (%)” value is on record as 14.58 ± 5.3%. Also, in series [3], the “% Cell Viability” value is 40%, the “Early Apoptotic (% ± S.D.)” value was 8.52 ± 2.3%, the “Late Apoptotic (% ± S.D.)” value is given as 3.01 ± 2.0% and the “Total Apoptotic (%)” value is given as 11.52 ± 4.3%. For the same compound, in series [4], the “% Cell Viability” value is 59%, the “Early Apoptotic (% ± S.D.)” value came out at 7.63 ± 1.9%, the “Late Apoptotic (% ± S.D.)” value is on record as “No L.A” and the “Total Apoptotic (%)” value is 7.63 ± 1.9%. Moreover, in series [5], the “bioactivity under hypoxia versus atmospheric O2” value is “similar”.

With `C/C=C(/C=O)[C@@H](CC=O)CC(=O)OCCc1ccc(O)cc1` [compound 1, oleocanthal], in series [1], the “% Cell Viability” value worked out at 33%, the “Early Apoptotic (% ± S.D.)” value is reported as 18.42 ± 4.4%, the “Late Apoptotic (% ± S.D.)” value worked out at 4.94 ± 3.1% and the “Total Apoptotic (%)” value is 23.36 ± 1.4%. In series [2], the “% Cell Viability” value was 57%, the “Early Apoptotic (% ± S.D.)” value stood at 4.77 ± 0.9% and the “Late Apoptotic (% ± S.D.)” value stood at 7.27 ± 0.2%. In series [3], the “% Cell Viability” value stood at 60%, the “Early Apoptotic (% ± S.D.)” value worked out at 4.47 ± 0.8%, the “Late Apoptotic (% ± S.D.)” value is listed as “No L.A” and the “Total Apoptotic (%)” value is 4.47 ± 0.8%. Also, in series [4], the “% Cell Viability” value came out at 59%, the “Early Apoptotic (% ± S.D.)” value is 7.45 ± 4.4%, the “Late Apoptotic (% ± S.D.)” value turned out to be 1.26 ± 0.7% and the “Total Apoptotic (%)” value is 8.71 ± 5.1%. The “bioactivity under hypoxia versus atmospheric O2” value in series [5] is “similar”.

ligstroside aglycone [4a,b]: in series [1], the “% Cell Viability” value is 36%, the “Early Apoptotic (% ± S.D.)” value came out at 16.03 ± 0.8%, the “Late Apoptotic (% ± S.D.)” value is given as 7.77 ± 1.8% and the “Total Apoptotic (%)” value worked out at 23.79 ± 2.6%. In series [3], the “% Cell Viability” value worked out at 34%, the “Early Apoptotic (% ± S.D.)” value came to 12.37 ± 2.7%, the “Late Apoptotic (% ± S.D.)” value was 4.42 ± 0.4% and the “Total Apoptotic (%)” value worked out at 16.78 ± 3.1%. For the same compound, in series [4], the “% Cell Viability” value was determined as 87%, the “Early Apoptotic (% ± S.D.)” value was found to be 1.30 ± 0.3%, the “Late Apoptotic (% ± S.D.)” value was “No L.A” and the “Total Apoptotic (%)” value stood at 1.30 ± 0.3%. Besides, in series [5], the “bioactivity under hypoxia versus atmospheric O2” value is “less effective under hypoxic conditions”.

As to `C/C=C(/C=O)[C@@H](CC=O)CC(=O)OCCc1ccc(O)c(O)c1` [compound 2, oleacein], in series [1], the “% Cell Viability” value is 41%, the “Early Apoptotic (% ± S.D.)” value came to 10.00 ± 1.3%, the “Late Apoptotic (% ± S.D.)” value was 4.55 ± 1.8% and the “Total Apoptotic (%)” value was 14.55 ± 3.1%. In addition, in series [2], the “% Cell Viability” value is 40%, the “Early Apoptotic (% ± S.D.)” value is listed as 5.96 ± 1.6%, the “Late Apoptotic (% ± S.D.)” value is listed as 3.07 ± 1.8% and the “Total Apoptotic (%)” value is listed as 9.03 ± 0.2%. Further, in series [3], the “% Cell Viability” value stood at 58%, the “Early Apoptotic (% ± S.D.)” value is 4.39 ± 1.8%, the “Late Apoptotic (% ± S.D.)” value is “No L.A” and the “Total Apoptotic (%)” value was determined as 4.39 ± 1.8%. Besides, in series [4], the “% Cell Viability” value worked out at 60%, the “Early Apoptotic (% ± S.D.)” value turned out to be 5.78 ± 0.9%, the “Late Apoptotic (% ± S.D.)” value is “No L.A” and the “Total Apoptotic (%)” value is reported as 5.78 ± 0.9%.

Source of the values: article PMC9820430, “New Affordable Methods for Large-Scale Isolation of Major Olive Secoiridoids and Systematic Comparative Study of Their Antiproliferative/Cytotoxic Effect on Multiple Cancer Cell Lines of Different Cancer Origins” (International Journal of Molecular Sciences, 2022).
